Experiments:
Pons [1] = test: Drug uptake in anesthetized cynomolgus monkey brain pons after 45 mins postinjection; assay type: ADME, organism-based, Macaca fascicularis; conditions: in vivo, 0.75 h
Midbrain [2] = test: Drug uptake in anesthetized cynomolgus monkey brain midbrain after 175 mins postinjection; assay type: ADME, organism-based, Macaca fascicularis; conditions: in vivo
[3] = Ratio of drug uptake in occipital lobe to cerebellum in anesthetized cynomolgus monkey after 235 mins postinjection; assay type: ADME, organism-based, Macaca fascicularis; conditions: in vivo
Caudate [4] = test: Drug uptake in anesthetized cynomolgus monkey brain caudate after 75 mins postinjection; assay type: ADME, organism-based, Macaca fascicularis, Caudate nucleus; conditions: in vivo, 1.25 h
[5] = Ratio of drug uptake in frontal lobe to cerebellum in anesthetized cynomolgus monkey after 135 mins postinjection; assay type: ADME, organism-based, Macaca fascicularis; conditions: in vivo, 2.25 h
Thalamus [6] = test: Drug uptake in anesthetized cynomolgus monkey brain thalamus after 6.5 mins postinjection; assay type: ADME, organism-based, Macaca fascicularis; set-up: unit not given here; conditions: in vivo
Midbrain [7] = test: Drug uptake in anesthetized cynomolgus monkey brain midbrain after 22.5 mins postinjection; assay type: ADME, organism-based, Macaca fascicularis; set-up: unit not given here; conditions: in vivo, 0.375 h
[8] = Drug uptake in anesthetized cynomolgus monkey brain frontal lobe after 105 mins postinjection; assay type: ADME, organism-based, Macaca fascicularis; conditions: in vivo, 1.75 h
[9] = Ratio of drug uptake in caudate to cerebellum in anesthetized cynomolgus monkey after 0.5 mins postinjection; assay type: ADME, organism-based, Macaca fascicularis; conditions: in vivo
Caudate [10] = test: Drug uptake in anesthetized cynomolgus monkey brain caudate after 195 mins postinjection; assay type: ADME, organism-based, Macaca fascicularis, Caudate nucleus; conditions: in vivo, 3.25 h
Midbrain [11] = test: Drug uptake in anesthetized cynomolgus monkey brain midbrain after 95 mins postinjection; assay type: ADME, organism-based, Macaca fascicularis; set-up: unit not given here; conditions: in vivo
[12] = Drug uptake in anesthetized cynomolgus monkey brain occipital lobe after 6.5 mins postinjection; assay type: ADME, organism-based, Macaca fascicularis; set-up: unit not given here; conditions: in vivo
Putamen [13] = test: Drug uptake in anesthetized cynomolgus monkey brain putamen after 215 mins postinjection; assay type: ADME, organism-based, Macaca fascicularis; conditions: in vivo
Pons [14] = test: Drug uptake in anesthetized cynomolgus monkey brain pons after 155 mins postinjection; assay type: ADME, organism-based, Macaca fascicularis; conditions: in vivo
Putamen [15] = test: Drug uptake in anesthetized cynomolgus monkey brain putamen after 12.5 mins postinjection; assay type: ADME, organism-based, Macaca fascicularis; set-up: unit not given here; conditions: in vivo
Thalamus [16] = test: Drug uptake in anesthetized cynomolgus monkey brain thalamus after 1.5 mins postinjection; assay type: ADME, organism-based, Macaca fascicularis; conditions: in vivo, 0.025 h
[17] = Ratio of drug uptake in midbrain to cerebellum in anesthetized cynomolgus monkey after 135 mins postinjection; assay type: ADME, organism-based, Macaca fascicularis; conditions: in vivo, 2.25 h
Thalamus [18] = test: Drug uptake in anesthetized cynomolgus monkey brain thalamus after 75 mins postinjection; assay type: ADME, organism-based, Macaca fascicularis; set-up: unit not given here; conditions: in vivo, 1.25 h
Midbrain [19] = test: Drug uptake in anesthetized cynomolgus monkey brain midbrain after 135 mins postinjection; assay type: ADME, organism-based, Macaca fascicularis; conditions: in vivo, 2.25 h
[20] = Ratio of drug uptake in pons to cerebellum in anesthetized cynomolgus monkey after 35 mins postinjection; assay type: ADME, organism-based, Macaca fascicularis; conditions: in vivo
Caudate [21] = test: Drug uptake in anesthetized cynomolgus monkey brain caudate after 12.5 mins postinjection; assay type: ADME, organism-based, Macaca fascicularis, Caudate nucleus; conditions: in vivo
Thalamus [22] = test: Drug uptake in anesthetized cynomolgus monkey brain thalamus after 2.5 mins postinjection; assay type: ADME, organism-based, Macaca fascicularis; set-up: unit not given here; conditions: in vivo
[23] = Ratio of drug uptake in pons to cerebellum in anesthetized cynomolgus monkey after 85 mins postinjection; assay type: ADME, organism-based, Macaca fascicularis; conditions: in vivo
Midbrain [24] = test: Drug uptake in anesthetized cynomolgus monkey brain midbrain after 195 mins postinjection; assay type: ADME, organism-based, Macaca fascicularis; conditions: in vivo, 3.25 h
[25] = Drug uptake in anesthetized cynomolgus monkey brain cerebellum after 45 mins postinjection; assay type: ADME, organism-based, Macaca fascicularis; conditions: in vivo, 0.75 h
Caudate [26] = test: Drug uptake in anesthetized cynomolgus monkey brain caudate after 6.5 mins postinjection; assay type: ADME, organism-based, Macaca fascicularis, Caudate nucleus; conditions: in vivo
[27] = Ratio of drug uptake in pons to cerebellum in anesthetized cynomolgus monkey after 125 mins postinjection; assay type: ADME, organism-based, Macaca fascicularis; conditions: in vivo
Putamen [28] = test: Drug uptake in anesthetized cynomolgus monkey brain putamen after 135 mins postinjection; assay type: ADME, organism-based, Macaca fascicularis; conditions: in vivo, 2.25 h
[29] = Ratio of drug uptake in caudate to cerebellum in anesthetized cynomolgus monkey after 95 mins postinjection; assay type: ADME, organism-based, Macaca fascicularis; conditions: in vivo
[30] = Drug uptake in anesthetized cynomolgus monkey brain frontal lobe after 22.5 mins postinjection; assay type: ADME, organism-based, Macaca fascicularis; conditions: in vivo, 0.375 h
[31] = Drug uptake in anesthetized cynomolgus monkey brain cerebellum after 22.5 mins postinjection; assay type: ADME, organism-based, Macaca fascicularis; conditions: in vivo, 0.375 h
[32] = Drug uptake in anesthetized cynomolgus monkey brain cerebellum after 65 mins postinjection; assay type: ADME, organism-based, Macaca fascicularis; conditions: in vivo
[33] = Drug uptake in anesthetized cynomolgus monkey brain cerebellum after 155 mins postinjection; assay type: ADME, organism-based, Macaca fascicularis; conditions: in vivo
Pons [34] = test: Drug uptake in anesthetized cynomolgus monkey brain pons after 95 mins postinjection; assay type: ADME, organism-based, Macaca fascicularis; conditions: in vivo

SMILES: O=C(OCCC[18F])C1C2CCC(CC1c1cccc(/C=C\I)c1)N2 (centres undefined)
- Drug uptake (Pons [1]): 4.5
- Drug uptake (Midbrain [2]): 4.1
- Ratio [3]: 1
- Drug uptake (Caudate [4]): 4.05
- Ratio [5]: 0.9
- Drug uptake (Thalamus [6]): 3.06
- Drug uptake (Midbrain [7]): 4.55
- Drug uptake [8]: 2.58
- Ratio [9]: 1
- Drug uptake (Caudate [10]): 2.74
- Drug uptake (Midbrain [11]): 4.77
- Drug uptake [12]: 2.83
- Drug uptake (Putamen [13]): 3.13
- Drug uptake (Pons [14]): 3.52
- Drug uptake (Putamen [15]): 4.08
- Drug uptake (Thalamus [16]): 0.24
- Ratio [17]: 1.7
- Drug uptake (Thalamus [18]): 4.76
- Drug uptake (Midbrain [19]): 4.45
- Ratio [20]: 0.9
- Drug uptake (Caudate [21]): 3
- Drug uptake (Thalamus [22]): 0.8
- Ratio [23]: 1.1
- Drug uptake (Midbrain [24]): 3.85
- Drug uptake [25]: 4.48
- Drug uptake (Caudate [26]): 2.53
- Ratio [27]: 1.4
- Drug uptake (Putamen [28]): 4.16
- Ratio [29]: 1.1
- Drug uptake [30]: 2.64
- Drug uptake [31]: 4.78
- Drug uptake [32]: 4.08
- Drug uptake [33]: 2.32
- Drug uptake (Pons [34]): 4.41
